Reference: US11331369B2, “Endoparasitic depsipeptides” (Zoetis Services LLC, priority 2017, dated 2022)

Tested on: microfilariae of Dirofilaria immitis
Assay: Dirofilaria immitis, Microfilaria (DiMF) In vitro Assay
Type: cell-based
Settings: 72 h, read-out: DiMF Minimum Effective Dose (MED), approximately 72 hours incubation, microfilariae assessed for survival or paralysis

Compound	minimal effective concentration [µM]
CC(C)C[C@H]1C(=O)O[C@H](Cc2ccc(Cn3ccc(Br)n3)cc2)C(=O)N(C)[C@@H](CC(C)C)C(=O)O[C@H](C)C(=O)N(C)[C@@H](CC(C)C)C(=O)O[C@H](Cc2ccc(Cn3ccc(Br)n3)cc2)C(=O)N(C)[C@@H](CC(C)C)C(=O)O[C@H](C)C(=O)N1C [Example 1b-63, (3S,6R,9S,12R,15S,18R,21S,24R)-6,18-bis(4-((3-bromo-1H-pyrazol-1-yl)methyl)benzyl)-3,9,15,21-tetraisobutyl-4,10,12,16,22,24-hexamethyl-1,7,13,19-tetraoxa-4,10,16,22-tetraazacyclotetracosan-2,5,8,11,14,17,20,23-octaone]	0.01 to 0.1
CC(C)C[C@H]1C(=O)O[C@H](Cc2ccc(Cn3cc(-c4ccccn4)cn3)cc2)C(=O)N(C)[C@@H](CC(C)C)C(=O)O[C@H](C)C(=O)N(C)[C@@H](CC(C)C)C(=O)O[C@H](Cc2ccc(Cn3cc(-c4ccccn4)cn3)cc2)C(=O)N(C)[C@@H](CC(C)C)C(=O)O[C@H](C)C(=O)N1C [Example 1b-71, (3S,6R,9S,12R,15S,18R,21S,24R)-3,9,15,21-tetraisobutyl-4,6,10,16,18,22-hexamethyl-12,24-bis(4-((4-(pyridin-2-yl)-1H-pyrazol-1-yl)methyl)benzyl)-1,7,13,19-tetraoxa-4,10,16,22-tetraazacyclotetracosan-2,5,8,11,14,17,20,23-octaone]	0.01 to 0.1
Cc1nccn1Cc1ccc(C[C@H]2OC(=O)[C@H](CC(C)C)N(C)C(=O)[C@@H](C)OC(=O)[C@H](CC(C)C)N(C)C(=O)[C@@H](Cc3cccc(Cn4ccnc4C)c3)OC(=O)[C@H](CC(C)C)N(C)C(=O)[C@@H](C)OC(=O)[C@H](CC(C)C)N(C)C2=O)cc1 [Example 7-1, (3S,6R,9S,12R,15S,18R,21S,24R)-3,9,15,21-tetraisobutyl-4,6,10,16,18,22-hexamethyl-12-[[3-[(2-methylimidazol-1-yl)methyl]phenyl]methyl]-24-[[4-[(2-methylimidazol-1-yl)methyl]phenyl]methyl]-1,7,13,19-tetraoxa-4,10,16,22-tetrazacyclotetracosane-2,5,8,11,14,17,20,23-octaone]	0.01 to 0.1
CC(=O)c1cnn(Cc2ccc(C[C@H]3OC(=O)[C@H](CC(C)C)N(C)C(=O)[C@@H](C)OC(=O)[C@H](CC(C)C)N(C)C(=O)[C@@H](Cc4ccccc4)OC(=O)[C@H](CC(C)C)N(C)C(=O)[C@@H](C)OC(=O)[C@H](CC(C)C)N(C)C3=O)cc2)c1 [Example 2-13, (3S,6R,9S,12R,15S,18R,21S,24R)-6-(4-((4-acetyl-1H-pyrazol-1-yl)methyl)benzyl)-18-benzyl-3,9,15,21-tetraisobutyl-4,10,12,16,22,24-hexamethyl-1,7,13,19-tetraoxa-4,10,16,22-tetraazacyclotetracosan-2,5,8,11,14,17,20,23-octaone]	0.01 to 0.1
CC(C)C[C@H]1C(=O)O[C@H](Cc2ccc(Cn3cc(C(C)(C)C)cn3)cc2)C(=O)N(C)[C@@H](CC(C)C)C(=O)O[C@H](C)C(=O)N(C)[C@@H](CC(C)C)C(=O)O[C@H](Cc2ccccc2)C(=O)N(C)[C@@H](CC(C)C)C(=O)O[C@H](C)C(=O)N1C [Example 2-8, (3S,6R,9S,12R,15S,18R,21S,24R)-6-benzyl-18-[[4-[(4-tert-butylpyrazol-1-yl)methyl]phenyl]methyl]-3,9,15,21-tetraisobutyl-4,10,12,16,22,24-hexamethyl-1,7,13,19-tetraoxa-4,10,16,22-tetrazacyclotetracosane-2,5,8,11,14,17,20,23-octaone]	0.01 to 0.1
CC(C)C[C@H]1C(=O)O[C@H](Cc2ccc(Cn3ccc(C4CCCC4)n3)cc2)C(=O)N(C)[C@@H](CC(C)C)C(=O)O[C@H](C)C(=O)N(C)[C@@H](CC(C)C)C(=O)O[C@H](Cc2ccccc2)C(=O)N(C)[C@@H](CC(C)C)C(=O)O[C@H](C)C(=O)N1C [Example 2-88, (3S,6R,9S,12R,15S,18R,21S,24R)-6-benzyl-18-(4-((3-cyclopentyl-1H-pyrazol-1-yl)methyl)benzyl)-3,9,15,21-tetraisobutyl-4,10,12,16,22,24-hexamethyl-1,7,13,19-tetraoxa-4,10,16,22-tetraazacyclotetracosan-2,5,8,11,14,17,20,23-octaone]	0.01 to 0.1
CCc1cnn(Cc2ccc(C[C@H]3OC(=O)[C@H](CC(C)C)N(C)C(=O)[C@@H](C)OC(=O)[C@H](CC(C)C)N(C)C(=O)[C@@H](Cc4ccc(Cn5cc(CC)cn5)cc4)OC(=O)[C@H](CC(C)C)N(C)C(=O)[C@@H](C)OC(=O)[C@H](CC(C)C)N(C)C3=O)cc2)c1 [Example 1b-31, (3S,6R,9S,12R,15S,18R,21S,24R)-6,18-bis[[4-[(4-ethylpyrazol-1-yl)methyl]phenyl]methyl]-3,9,15,21-tetraisobutyl-4, 10,12,16,22,24-hexamethyl-1,7,13,19-tetraoxa-4,10,16,22-tetrazacyclotetracosane-2,5,8,11,14,17,20,23-octaone]	0.01 to 0.1
CC(C)C[C@H]1C(=O)O[C@H](Cc2cccc(Cn3nc(C#N)cc3C#N)c2)C(=O)N(C)[C@@H](CC(C)C)C(=O)O[C@H](C)C(=O)N(C)[C@@H](CC(C)C)C(=O)O[C@H](Cc2cccc(Cn3nc(C#N)cc3C#N)c2)C(=O)N(C)[C@@H](CC(C)C)C(=O)O[C@H](C)C(=O)N1C [Example 4-14, 1,1′-(((((2R,5S,8R,11S,14R,17S,20R,23S)-5, 11,17,23-tetraisobutyl-4,8,10,16,20,22-hexamethyl-3,6,9,12,15,18,21,24-octaoxo-1,7,13,19-tetraoxa-4,10,16,22-tetraazacyclotetracosane-2,14-diyl)bis(methylene))bis(3,1-phenylene))bis(methylene))bis(1H-pyrazole-3,5-dicarbonitrile)]	0.001 to 0.01
Cc1cnn(Cc2ccc(C[C@H]3OC(=O)[C@H](CC(C)C)N(C)C(=O)[C@@H](C)OC(=O)[C@H](CC(C)C)N(C)C(=O)[C@@H](Cc4ccc(Cn5ccc(C(F)(F)F)n5)cc4)OC(=O)[C@H](CC(C)C)N(C)C(=O)[C@@H](C)OC(=O)[C@H](CC(C)C)N(C)C3=O)cc2)c1 [Example 1a-29, (3S,6R,9S,12R,15S,18R,21S,24R)-3,9,15,21-tetraisobutyl-4,6,10,16,18,22-hexamethyl-12-(4-((4-methyl-1H-pyrazol-1-yl)methyl)benzyl)-24-(4-((3-(trifluoromethyl)-1H-pyrazol-1-yl)methyl)benzyl)-1,7,13,19-tetraoxa-4,10,16,22-tetraazacyclotetracosan-2,5,8,11,14,17,20,23-octaone]	0.01 to 0.1
CC(C)C[C@H]1C(=O)O[C@H](Cc2ccc(CN3CCSc4ccccc43)cc2)C(=O)N(C)[C@@H](CC(C)C)C(=O)O[C@H](C)C(=O)N(C)[C@@H](CC(C)C)C(=O)O[C@H](Cc2ccccc2)C(=O)N(C)[C@@H](CC(C)C)C(=O)O[C@H](C)C(=O)N1C [Example 10-41, (3S,6R,9S,12R,15S,18R,21S,24R)-6-benzyl-18-(4-((2,3-dihydro-4H-benzo[b][1,4]thiazin-4-yl)methyl)benzyl)-3,9,15,21-tetraisobutyl-4,10,12,16,22,24-hexamethyl-1,7,13,19-tetraoxa-4,10,16,22-tetraazacyclotetracosan-2,5,8,11,14,17,20,23-octaone]	0.01 to 0.1
COc1cnn(Cc2cccc(C[C@H]3OC(=O)[C@H](CC(C)C)N(C)C(=O)[C@@H](C)OC(=O)[C@H](CC(C)C)N(C)C(=O)[C@@H](Cc4cccc(Cn5cc(OC)cn5)c4)OC(=O)[C@H](CC(C)C)N(C)C(=O)[C@@H](C)OC(=O)[C@H](CC(C)C)N(C)C3=O)c2)c1 [Example 4-9, (3S,6R,9S,12R,15S,18R,21S,24R)-3,9,15,21-tetraisobutyl-6,18-bis(3-((4-methoxy-1H-pyrazol-1-yl)methyl)benzyl)-4,10,12,16,22,24-hexamethyl-1,7,13,19-tetraoxa-4,10,16,22-tetraazacyclotetracosan-2,5,8,11,14,17,20,23-octaone]	0.01 to 0.1
CC(C)C[C@H]1C(=O)O[C@H](Cc2ccc(Cn3ccc(OC(F)F)n3)cc2)C(=O)N(C)[C@@H](CC(C)C)C(=O)O[C@H](C)C(=O)N(C)[C@@H](CC(C)C)C(=O)O[C@H](Cc2ccc(Cn3ccc(OC(F)F)n3)cc2)C(=O)N(C)[C@@H](CC(C)C)C(=O)O[C@H](C)C(=O)N1C [Example 1b-156, (3S,6R,9S,12R,15S,18R,21S,24R)-6,18-bis(4-((3-(difluoromethoxy)-1H-pyrazol-1-yl)methyl)benzyl)-3,9,15,21-tetraisobutyl-4,10,12,16,22,24-hexamethyl-1,7,13,19-tetraoxa-4,10,16,22-tetraazacyclotetracosan-2,5,8,11,14,17,20,23-octaone]	0.01 to 0.1
Cc1ccc(OCc2cn(Cc3ccc(C[C@H]4OC(=O)[C@H](CC(C)C)N(C)C(=O)[C@@H](C)OC(=O)[C@H](CC(C)C)N(C)C(=O)[C@@H](Cc5ccccc5)OC(=O)[C@H](CC(C)C)N(C)C(=O)[C@@H](C)OC(=O)[C@H](CC(C)C)N(C)C4=O)cc3)nn2)cc1 [Example 10-21, (3S,6R,9S,12R,15S,18R,21S,24R)-6-benzyl-3,9,15,21-tetraisobutyl-4,10,12,16,22,24-hexamethyl-18-(4-((4-((p-tolyloxy)methyl)-1H-1,2,3-triazol-1-yl)methyl)benzyl)-1,7,13,19-tetraoxa-4,10,16,22-tetraazacyclotetracosan-2,5,8,11,14,17,20,23-octaone]	0.01 to 0.1
CC(C)C[C@H]1C(=O)O[C@H](Cc2ccc(Cn3ccc(Br)n3)cc2)C(=O)N(C)[C@@H](CC(C)C)C(=O)O[C@H](C)C(=O)N(C)[C@@H](CC(C)C)C(=O)O[C@H](Cc2ccccc2)C(=O)N(C)[C@@H](CC(C)C)C(=O)O[C@H](C)C(=O)N1C [Example 2-57, (3S,6R,9S,12R,15S,18R,21S,24R)-6-benzyl-18-(4-((3-bromo-1H-pyrazol-1-yl)methyl)benzyl)-3,9,15,21-tetraisobutyl-4,10,12,16,22,24-hexamethyl-1,7,13,19-tetraoxa-4,10,16,22-tetraazacyclotetracosan-2,5,8,11,14,17,20,23-octaone]	0.01 to 0.1
